According to patent US12662479B2 (Foghorn Therapeutics Inc., priority 2020, dated 2026):

Columns and labels:
[1] = target: T1, HiBit-BRM fusion protein (Homo sapiens, UniProt P51531); assay: HiBiT-BRM cell-based degradation assay (Nano-Glo HiBiT Lytic Detection, 24 h); settings: HeLa cells expressing HiBiT-BRM; for DC50: read-out: BRM HiBit Degradation IC50; for BRM HiBit Degradation Maximum measured: top dose 30 μM
T1 construct: expressed in transfected cells
Procedure, shortened: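 Stable HiBiT-BRM HeLa line; 24 h compound exposure, top final 30 μM, 3-fold, 10 pts in duplicate. Lytic HiBiT/LgBiT luminescence readout. % degradation vs DMSO (0%) and 2 μM known BRM/BRG1 degrader (100%).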

[2] = target: T2, HiBit-BRG1 fusion protein (Homo sapiens, UniProt P51532); assay: HiBiT-BRG1 cell-based degradation assay (Nano-Glo HiBiT Lytic Detection, 24 h); settings: HeLa cells expressing HiBit-BRG1 and LgBit; for DC50: read-out: BRG1 HiBit Degradation IC50; for Dmax: HeLa, top dose 30 μM, read-out: BRG1 HiBit Degradation Maximum measured
T2 construct: expressed in transfected cells
T2 sequence (P51532 whole entry, the tested form may be a part): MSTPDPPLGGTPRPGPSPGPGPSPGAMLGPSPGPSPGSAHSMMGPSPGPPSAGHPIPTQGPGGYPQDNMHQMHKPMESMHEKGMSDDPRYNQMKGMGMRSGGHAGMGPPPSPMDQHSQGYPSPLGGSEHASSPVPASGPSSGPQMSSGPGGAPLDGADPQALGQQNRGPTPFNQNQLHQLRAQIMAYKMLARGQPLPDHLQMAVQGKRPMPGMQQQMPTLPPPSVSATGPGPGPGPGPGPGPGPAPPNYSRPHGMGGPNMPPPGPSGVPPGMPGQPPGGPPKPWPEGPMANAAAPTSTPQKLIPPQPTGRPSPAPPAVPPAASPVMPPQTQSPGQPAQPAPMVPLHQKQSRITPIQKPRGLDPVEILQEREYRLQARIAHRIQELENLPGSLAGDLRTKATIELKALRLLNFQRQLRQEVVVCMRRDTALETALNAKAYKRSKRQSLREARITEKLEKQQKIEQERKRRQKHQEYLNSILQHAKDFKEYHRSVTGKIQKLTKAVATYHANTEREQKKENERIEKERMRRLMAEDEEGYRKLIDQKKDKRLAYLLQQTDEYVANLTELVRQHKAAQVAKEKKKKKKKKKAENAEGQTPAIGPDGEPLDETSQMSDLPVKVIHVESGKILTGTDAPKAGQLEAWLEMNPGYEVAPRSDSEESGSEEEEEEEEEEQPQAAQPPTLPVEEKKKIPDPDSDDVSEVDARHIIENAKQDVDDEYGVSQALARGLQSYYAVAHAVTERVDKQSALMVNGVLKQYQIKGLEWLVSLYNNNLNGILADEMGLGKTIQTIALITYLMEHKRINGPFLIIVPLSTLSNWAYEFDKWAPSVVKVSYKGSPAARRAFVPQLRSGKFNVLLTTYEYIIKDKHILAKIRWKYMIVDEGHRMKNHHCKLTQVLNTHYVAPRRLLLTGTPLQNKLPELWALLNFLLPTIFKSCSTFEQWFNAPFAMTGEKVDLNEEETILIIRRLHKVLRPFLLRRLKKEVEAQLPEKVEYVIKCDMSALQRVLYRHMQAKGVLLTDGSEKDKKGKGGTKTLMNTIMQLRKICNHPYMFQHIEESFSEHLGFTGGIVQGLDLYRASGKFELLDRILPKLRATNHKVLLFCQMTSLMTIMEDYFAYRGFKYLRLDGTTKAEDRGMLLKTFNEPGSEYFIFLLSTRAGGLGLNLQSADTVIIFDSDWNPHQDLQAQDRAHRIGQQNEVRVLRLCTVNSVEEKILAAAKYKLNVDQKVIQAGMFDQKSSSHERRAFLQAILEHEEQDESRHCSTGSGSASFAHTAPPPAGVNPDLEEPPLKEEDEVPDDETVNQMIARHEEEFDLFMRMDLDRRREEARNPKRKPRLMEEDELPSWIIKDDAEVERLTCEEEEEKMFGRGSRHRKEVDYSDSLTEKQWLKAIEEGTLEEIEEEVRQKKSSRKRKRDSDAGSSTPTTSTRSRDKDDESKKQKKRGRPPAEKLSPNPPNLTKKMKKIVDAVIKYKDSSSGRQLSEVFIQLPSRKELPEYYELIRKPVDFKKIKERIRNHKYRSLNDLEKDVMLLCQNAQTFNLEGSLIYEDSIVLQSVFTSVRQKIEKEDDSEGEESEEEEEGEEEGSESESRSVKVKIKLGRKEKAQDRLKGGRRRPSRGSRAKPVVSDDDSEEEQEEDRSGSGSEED
Procedure, shortened: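 Degradation is scaled from DMSO-treated cells (0%) to cells given 2 μM of a known BRM/BRG1 degrader (100%). HeLa cells stably carrying HiBiT-BRG1 plus LgBiT (5000/well) were lysed with Nano-Glo HiBiT detection reagent, shaken 10 min at RT, and luminescence read.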

T1 sequence (P51531 whole entry, the tested form may be a part): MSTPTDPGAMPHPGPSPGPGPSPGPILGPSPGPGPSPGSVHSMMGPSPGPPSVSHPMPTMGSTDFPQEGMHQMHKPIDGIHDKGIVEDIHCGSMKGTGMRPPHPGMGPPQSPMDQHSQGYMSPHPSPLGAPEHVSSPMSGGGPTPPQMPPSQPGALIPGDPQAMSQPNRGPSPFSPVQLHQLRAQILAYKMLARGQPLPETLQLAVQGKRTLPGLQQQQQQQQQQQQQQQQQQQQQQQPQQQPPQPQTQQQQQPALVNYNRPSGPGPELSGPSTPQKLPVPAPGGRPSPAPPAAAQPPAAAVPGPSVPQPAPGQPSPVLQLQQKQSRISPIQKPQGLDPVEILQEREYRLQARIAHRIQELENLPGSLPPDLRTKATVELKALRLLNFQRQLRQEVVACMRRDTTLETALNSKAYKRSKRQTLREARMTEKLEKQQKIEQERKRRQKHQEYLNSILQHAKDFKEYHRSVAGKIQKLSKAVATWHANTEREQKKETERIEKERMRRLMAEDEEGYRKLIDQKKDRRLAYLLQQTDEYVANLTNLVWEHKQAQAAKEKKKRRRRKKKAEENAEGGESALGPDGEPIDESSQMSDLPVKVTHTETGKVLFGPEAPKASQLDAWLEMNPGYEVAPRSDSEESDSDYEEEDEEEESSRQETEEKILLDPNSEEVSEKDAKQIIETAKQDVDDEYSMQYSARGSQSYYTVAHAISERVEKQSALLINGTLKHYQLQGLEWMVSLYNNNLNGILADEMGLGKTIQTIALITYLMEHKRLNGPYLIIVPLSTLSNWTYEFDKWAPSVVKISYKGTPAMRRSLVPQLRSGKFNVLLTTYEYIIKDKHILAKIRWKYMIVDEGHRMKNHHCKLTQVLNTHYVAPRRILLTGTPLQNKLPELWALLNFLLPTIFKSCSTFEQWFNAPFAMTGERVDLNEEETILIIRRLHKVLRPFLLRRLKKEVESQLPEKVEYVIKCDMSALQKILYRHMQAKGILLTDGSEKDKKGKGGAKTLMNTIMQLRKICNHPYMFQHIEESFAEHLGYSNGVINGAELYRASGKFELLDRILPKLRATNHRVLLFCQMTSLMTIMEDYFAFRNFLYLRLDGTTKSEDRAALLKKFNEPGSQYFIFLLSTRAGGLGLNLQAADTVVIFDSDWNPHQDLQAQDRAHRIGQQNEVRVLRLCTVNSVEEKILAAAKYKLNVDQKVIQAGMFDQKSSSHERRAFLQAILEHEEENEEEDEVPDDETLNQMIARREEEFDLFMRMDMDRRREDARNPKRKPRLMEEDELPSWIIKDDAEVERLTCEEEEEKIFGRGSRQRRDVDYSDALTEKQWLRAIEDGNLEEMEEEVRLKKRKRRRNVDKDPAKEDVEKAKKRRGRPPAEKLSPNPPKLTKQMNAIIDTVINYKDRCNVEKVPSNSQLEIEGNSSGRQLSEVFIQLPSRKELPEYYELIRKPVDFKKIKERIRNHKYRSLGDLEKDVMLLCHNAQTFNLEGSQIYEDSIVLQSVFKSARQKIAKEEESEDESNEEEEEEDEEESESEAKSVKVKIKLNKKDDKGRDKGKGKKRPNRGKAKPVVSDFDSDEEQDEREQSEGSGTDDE

Row | SMILES | DC50 [1] | BRM HiBit Degradation Maximum measured [1] | DC50 [2] | Dmax [2]
1 | Cc1ncsc1-c1ccc(CNC(=O)[C@@H]2C[C@@H](O)CN2C(=O)[C@@H](NC(=O)CCCCCC(=O)NCCOc2cc(-c3cccc(-c4csc(NC(=O)CNC(=O)c5ccn(S(C)(=O)=O)c5)n4)c3)ccn2)C(C)(C)C)cc1 [Compound 85, N1-((S)-1-((2S,4R)-4-hydroxy-2-((4-(4-methylthiazol-5-yl)benzyl)carbamoyl)pyrrolidin-1-yl)-3,3-dimethyl-1-oxobutan-2-yl)-N7-(2-((4-(3-(2-(2-(1-(methylsulfonyl)-1H-pyrrole-3-carboxamido)acetamido)thiazol-4-yl)phenyl)pyridin-2-yl)oxy)ethyl)heptanediamide] | 0.1 to 1 µM | A (‘A’ = Maximum degradation >75%) | 0.1 to 1 µM | > 75%
2 | CS(=O)(=O)n1ccc(C(=O)NCC(=O)Nc2nc(-c3cccc(-c4ccnc(OCCNC(=O)CCOCCOCCNc5ccc6c(c5)C(=O)N(C5CCC(=O)NC5=O)C6=O)c4)c3)cs2)c1 (stereo not shown) [Compound 83, N-[2-[[4-[3-[2-[2-[3-[2-[2-[[2-(2,6-dioxo-3-piperidyl)-1,3-dioxoisoindolin-5-yl]amino]ethoxy]ethoxy]propanoylamino]ethoxy]-4-pyridyl]phenyl]thiazol-2-yl]amino]-2-oxo-ethyl]-1-methylsulfonyl-pyrrole-3-carboxamide] | > 10 µM | C (‘C’ = Maximum degradation <50%) | > 10 µM | < 50%
3 | Cc1ncsc1-c1ccc(CNC(=O)[C@@H]2C[C@@H](O)CN2C(=O)[C@@H](NC(=O)CCCCCCCCC(=O)NCCOc2cc(-c3cccc(-c4csc(NC(=O)CNC(=O)c5ccn(S(C)(=O)=O)c5)n4)c3)ccn2)C(C)(C)C)cc1 [Compound 69, N1-((S)-1-((2S,4R)-4-hydroxy-2-((4-(4-methylthiazol-5-yl)benzyl)carbamoyl)pyrrolidin-1-yl)-3,3-dimethyl-1-oxobutan-2-yl)-N10-(2-((4-(3-(2-(2-(1-(methylsulfonyl)-1H-pyrrole-3-carboxamido)acetamido)thiazol-4-yl)phenyl)pyridin-2-yl)oxy)ethyl)decanediamide] | < 0.1 µM | A (‘A’ = Maximum degradation >75%) | 0.1 to 1 µM | > 75%
4 | CS(=O)(=O)n1ccc(C(=O)N[C@@H](CCOCCCC(=O)N2CC(CN3CCN(c4ccc5c(c4)C(=O)N(C4CCC(=O)NC4=O)C5=O)CC3)C2)C(=O)Nc2nc(-c3ccccc3)cs2)c1 (stereo partly drawn) [Compound 221, (2S)-4-[4-[3-([4-[2-(2,6-dioxopiperidin-3-yl)-1,3-dioxoisoindol-5-yl]piperazin-1-yl]methyl)azetidin-1-yl]-4-oxobutoxy]-2-[(1-methanesulfonylpyrrol-3-yl)formamido]-N-(4-phenyl-1,3-thiazol-2-yl)butanamide] | > 10 µM | C (‘C’ = Maximum degradation <50%) | > 10 µM | < 50%
5 | CS(=O)(=O)n1ccc(C(=O)N[C@@H](CCOCCCC(=O)N2CCN(CC3CN(c4ccc5c(c4)C(=O)N(C4CCC(=O)NC4=O)C5=O)C3)CC2)C(=O)Nc2nc(-c3ccccc3)cs2)c1 (stereo partly drawn) [Compound 183, (2S)-4-[4-[4-([1-[2-(2,6-dioxopiperidin-3-yl)-1,3-dioxoisoindol-5-yl]azetidin-3-yl]methyl)piperazin-1-yl]-4-oxobutoxy]-2-[(1-methanesulfonylpyrrol-3-yl)formamido]-N-(4-phenyl-1,3-thiazol-2-yl)butanamide; formic acid] | > 10 µM | C (‘C’ = Maximum degradation <50%) | > 10 µM | < 50%

Other lines, results leading:

Row | DC50 [1] | BRM HiBit Degradation Maximum measured [1] | DC50 [2] | Dmax [2] | SMILES
6 | > 10 µM | C (‘C’ = Maximum degradation <50%) | > 10 µM | < 50% | Cc1ncsc1-c1ccc(CNC(=O)[C@@H]2C[C@@H](O)CN2C(=O)[C@@H](NC(=O)CCCCCNC(=O)c2ccc(COC[C@H](NC(=O)c3ccn(S(C)(=O)=O)c3)C(=O)Nc3nc(-c4ccccc4)cs3)cc2)C(C)(C)C)cc1 [Compound 232, (2S,4R)-4-hydroxy-1-[(2S)-2-[6-[(4-[[(2S)-2-[(1-methanesulfonylpyrrol-3-yl)formamido]-2-[(4-phenyl-1,3-thiazol-2-yl)carbamoyl]ethoxy]methyl]phenyl)formamido]hexanamido]-3,3-dimethylbutanoyl]-N-[[4-(4-methyl-1,3-thiazol-5-yl)phenyl]methyl]pyrrolidine-2-carboxamide]
7 | > 10 µM | C (‘C’ = Maximum degradation <50%) | > 10 µM | < 50% | Cc1ncsc1-c1ccc(CNC(=O)[C@@H]2C[C@@H](O)CN2C(=O)[C@@H](NC(=O)CCCCCCCCCCCCC(=O)NCCCC[C@H](NC(=O)c2ccn(S(C)(=O)=O)c2)C(=O)Nc2nc(-c3ccccc3)cs2)C(C)(C)C)cc1 [Compound 267, N-[(2S)-1-[(2S,4R)-4-hydroxy-2-([[4-(4-methyl-1,3-thiazol-5-yl)phenyl]methyl]carbamoyl)pyrrolidin-1-yl]-3,3-dimethyl-1-oxobutan-2-yl]-N-[(5S)-5-[(1-methanesulf-onylpyrrol-3-yl)formamido]-5-[(4-phenyl-1,3-thiazol-2-yl)carbamoyl]pentyl]tetradecanediamide]
8 | > 10 µM | C (‘C’ = Maximum degradation <50%) | > 10 µM | < 50% | Cc1ncsc1-c1ccc(CNC(=O)[C@@H]2C[C@@H](O)CN2C(=O)[C@@H](NC(=O)COCCOCCOCCNC(=O)CCCOC[C@H](NC(=O)c2ccn(S(C)(=O)=O)c2)C(=O)Nc2nc(-c3ccccc3)cs2)C(C)(C)C)cc1 [Compound 225, (2S,4R)-4-hydroxy-1-[(2S)-2-(2-[2-[2-(2-[4-[(2S)-2-[(1-methanesulfonylpyrrol-3-yl)formamido]-2-[(4-phenyl-1,3-thiazol-2-yl)carbamoyl]ethoxy]butanamido]ethoxy)ethoxy]ethoxy]acetamido)-3,3-dimethylbutanoyl]-N-[[4-(4-methyl-1,3-thiazol-5-yl)phenyl]methyl]pyrrolidine-2-carboxamide]
9 | 0.1 to 1 µM | A (‘A’ = Maximum degradation >75%) | 0.1 to 1 µM | > 75% | CS(=O)(=O)n1ccc(C(=O)NCC(=O)Nc2nc(-c3cccc(-c4ccnc(C5(C(=O)NC6CCN(CCCCOc7ccc8c(c7)C(=O)N(C7CCC(=O)NC7=O)C8=O)CC6)CC5)c4)c3)cs2)c1 (stereo not shown) [Compound 140, N-[1-(4-[[2-(2,6-dioxopiperidin-3-yl)-1,3-dioxoisoindol-5-yl]oxy]butyl)piperidin-4-yl]-1-[4-[3-(2-[2-[(1-methanesulfonylpyrrol-3-yl)formamido]acetamido]-1,3-thiazol-4-yl)phenyl]pyridin-2-yl]cyclopropane-1-carboxamide]
10 | > 10 µM | C (‘C’ = Maximum degradation <50%) | > 10 µM | < 50% | CS(=O)(=O)n1ccc(C(=O)N[C@@H](CCOCCCC(=O)NCCCC#Cc2cccc3c2C(=O)N(C2CCC(=O)NC2=O)C3=O)C(=O)Nc2nc(-c3ccccc3)cs2)c1 (stereo partly drawn) [Compound 272, (2S)-4-[3-([5-[2-(2,6-dioxopiperidin-3-yl)-1,3-dioxoisoindol-4-yl]pent-4-yn-1-yl]carbamoyl)propoxy]-2-[(1-methanesulfonylpyrrol-3-yl)formamido]-N-(4-phenyl-1,3-thiazol-2-yl)butanamide]
